In patent US20090018111A1, “Novel Antimicrobial Medicament” (priority 2004, published 2009):
Where two headings read alike, the source gives them in different places.

Tests used:
Experiment in all cases: Sensitivity test (agar dilution)
[1] = tested on: S. maltophilia IID1275; type: cell-based, Stenotrophomonas maltophilia; settings: Stenotrophomonas maltophilia, S. maltophilia IID1275
Description: (§1) The antibacterial activities were tested against various 18 bacteria (27 standard strains) which are representative bacteria caused clinically infectious disease (Staphylococcus aureus 3 strains, Staphylococcus epidermidis 1 strain, Micrococcus luteus 1 strain, Streptococcus pyogenes 1 strain, Enterococcus faecalis 1 strain, Enterococcus faecium 1 strain, Bacillus subtilis 1 strain, Escherichia coli 3 strains, Klebsiella pneumoniae 1 strain, Proteus mirabilis 1 strain, Proteus vulgaris 2 strains, Pseudomonas aeruginosa 3 strains, Serratia marcescens 2 strains, Enterobacter aerogenes 1 strain, Stenotrophomonas maltophilia 1 strain, Enterobacter cloacae 1 strain, Citrobacter freundii 1 strain, Moraxella catarrhalis 2 strains).
(§2) According to the standard method of Japan Chemotherapeutic Society (Chemotherapy, vol. […], p 76-79 (1981)) the test was carried out using the agar dilution method. After dissolving test samples in distilled water, agar medium containing the test samples was prepared in such a manner that the final concentration became twice serial dilution by pouring serially diluted combination drug solution or a single drug solution into agar medium. As agar medium was used Mueller Hinton Agar medium (MHA). Then, each strain was cultivated over night at 37° C. in an incubator and suspended in buffered saline solution with gelatin (BSG) in the concentration of about 10^6 CFU/ml. The suspension (about 5 μl) containing test strains was inoculated to the medium containing the test samples by Micro Planter.
(§3) When the sample is subjected to sensitivity test, this mixed solution was diluted by twice serial dilution method.
(§4) Furthermore, when the drug is solely used, each test sample was used as it is, and diluted by twice serial dilution method from the maximum concentration to the minimum concentration.
(§5) FIC index based on MIC value was calculated. […] Namely, when FIC index calculated by the following formula is equal or less than 1, the enhanced effect of the combination drug in said ratio is considered as positive. When FIC index is over 1, the enhanced effect of the combination drug in said ratio is considered as negative.
(§6) Formula of FIC index: FIC index=(MIC of Drug A in combination/MIC of Drug A alone)+(MIC of Drug B in combination/MIC of Drug B alone) N.C. in tables means being not calculated.

[2] = tested on: K. pneumoniae ATCC10031; type: cell-based, Klebsiella pneumoniae; settings: Klebsiella pneumoniae, K. pneumoniae ATCC10031
Description: as §1, §2, §3, §4, §5, §6

[3] = tested on: P. aeruginosa IFO3451; type: cell-based, Pseudomonas aeruginosa; settings: Pseudomonas aeruginosa, P. aeruginosa IFO3451
How it was run: (§7)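 FIC index is computed from MICs of each drug alone versus in combination (≤1 = enhancement, >1 = none). MICs are measured on Mueller Hinton agar plates carrying twofold dilution series and inoculated with about 10^6 CFU/ml bacterial suspension.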

[4] = tested on: P. aeruginosa TL-2666; type: cell-based, Pseudomonas aeruginosa; settings: Pseudomonas aeruginosa, P. aeruginosa TL-2666
How it was run: as §7

[5] = tested on: M. catarrhalis ATCC8176; type: cell-based, Moraxella catarrhalis; settings: Moraxella catarrhalis, M. catarrhalis ATCC8176
Description: as §1, §2, §3, §4, §5, §6

[6] = tested on: M. catarrhalis ATCC25238; type: cell-based, Moraxella catarrhalis; settings: Moraxella catarrhalis, M. catarrhalis ATCC25238
Description: as §1, §2, §3, §4, §5, §6

[7] = tested on: E. coli NIHJ JC-2; type: cell-based, Escherichia coli; settings: Escherichia coli, E. coli NIHJ JC-2
Description: as §1, §2, §3, §4, §5, §6

[8] = tested on: E. coli ML1410; type: cell-based, Escherichia coli; settings: Escherichia coli, E. coli ML1410
Description: as §1, §2, §3, §4, §5, §6

[9] = tested on: E. aerogenes ATCC13048; type: cell-based, Enterobacter aerogenes; settings: Klebsiella aerogenes, E. aerogenes ATCC13048
Description: as §1, §2, §3, §4, §5, §6

[10] = tested on: E. faecium ATCC19434; type: cell-based, Enterococcus faecium; settings: Enterococcus faecium, E. faecium ATCC19434
Description: as §1, §2, §3, §4, §5, §6

[11] = tested on: B. subtilis ATCC6633; type: cell-based, Bacillus subtilis; settings: Bacillus subtilis, B. subtilis ATCC6633
Description: as §1, §2, §3, §4, §5, §6

[12] = tested on: P. mirabiris GN2425; type: cell-based, Proteus mirabilis; settings: Proteus mirabilis, P. mirabiris GN2425
Description: as §1, §2, §3, §4, §5, §6

[13] = tested on: S. epidermidis IAM1296; type: cell-based, Staphylococcus epidermidis; settings: Staphylococcus epidermidis, S. epidermidis IAM1296
Description: as §1, §2, §3, §4, §5, §6

For C[C@@H](O)[C@H]1C(=O)N2C(C(=O)O)=C(S[C@@H]3CN[C@H](CNS(N)(=O)=O)C3)[C@H](C)[C@H]12 [DRPM, doripenem], which MIC ([1]; IID1275, Concomitant (DRPM:SM = 1:1), read-out: MIC concomitant) is on record?
Its MIC is > 32 µg/mL.

And the MIC ([1]; IID1275, drug alone, read-out: MIC alone)?
Its MIC is > 32 µg/mL.

And the MIC ([2]; ATCC10031, Concomitant (DRPM:SM = 1:1), read-out: MIC concomitant)?
The MIC was 0.008 µg/mL.

And the MIC ([2]; ATCC10031, drug alone, read-out: MIC alone)?
The MIC was 0.016 µg/mL.

And the MIC ([3]; IFO3451, Concomitant (DRPM:SM = 1:1), read-out: MIC concomitant)?
The MIC was 0.25 µg/mL.

And the MIC ([3]; IFO3451, drug alone, read-out: MIC alone)?
Its MIC is 0.5 µg/mL.

What about the MIC ([4]; TL2666, Concomitant (DRPM:SM = 1:1), read-out: MIC concomitant) of the same compound?
Its MIC is 1 µg/mL.

What about the MIC ([4]; TL2666, drug alone, read-out: MIC alone) of the same compound?
Its MIC is 1 µg/mL.

What about the MIC ([5]; ATCC8176, Concomitant (DRPM:SM = 1:1), read-out: MIC concomitant) of the same compound?
Its MIC is ≤ 0.002 µg/mL.

What about the MIC ([5]; ATCC8176, drug alone, read-out: MIC alone) of the same compound?
The MIC was 0.008 µg/mL.

What about the MIC ([6]; ATCC25238, Concomitant (DRPM:SM = 1:1), read-out: MIC concomitant) of the same compound?
The MIC was ≤ 0.002 µg/mL.

And the MIC ([6]; ATCC25238, drug alone, read-out: MIC alone)?
The MIC was 0.004 µg/mL.

And the MIC ([7]; NIHJJC2, Concomitant (DRPM:SM = 1:1), read-out: MIC concomitant)?
Its MIC is 0.016 µg/mL.

And the MIC ([7]; NIHJJC2, drug alone, read-out: MIC alone)?
Its MIC is 0.016 µg/mL.

What about the MIC ([8]; ML1410, Concomitant (DRPM:SM = 1:1), read-out: MIC concomitant) of the same compound?
The MIC was 0.031 µg/mL.

And the MIC ([8]; ML1410, drug alone, read-out: MIC alone)?
Its MIC is 0.031 µg/mL.

What about the MIC ([9]; ATCC13048, Concomitant (DRPM:SM = 1:1), read-out: MIC concomitant) of the same compound?
The MIC was 0.031 µg/mL.

What about the MIC ([9]; ATCC13048, drug alone, read-out: MIC alone) of the same compound?
Its MIC is 0.031 µg/mL.

What about the MIC ([10]; ATCC19434, Concomitant (DRPM:SM = 1:1), read-out: MIC concomitant) of the same compound?
The MIC was 0.25 µg/mL.

And the MIC ([10]; ATCC19434, drug alone, read-out: MIC alone)?
The MIC was 8 µg/mL.

And the MIC ([11]; ATCC6633, Concomitant (DRPM:SM = 1:1), read-out: MIC concomitant)?
The MIC was ≤ 0.002 µg/mL.

What about the MIC ([11]; ATCC6633, drug alone, read-out: MIC alone) of the same compound?
The MIC was 0.008 µg/mL.

What about the MIC ([12]; GN2425, Concomitant (DRPM:SM = 1:1), read-out: MIC concomitant) of the same compound?
The MIC was 0.063 µg/mL.

And the MIC ([12]; GN2425, drug alone, read-out: MIC alone)?
Its MIC is 0.063 µg/mL.

And the MIC ([13]; IAM1296, Concomitant (DRPM:SM = 1:1), read-out: MIC concomitant)?
The MIC was 0.031 µg/mL.

And the MIC ([13]; IAM1296, drug alone, read-out: MIC alone)?
Its MIC is 0.5 µg/mL.
